Data: ChEMBL document CHEMBL1201862, “PubChem BioAssay data set” (2004)
Values belong to the molecule of their own block, whether it stands above or below them. Active and inactive are the calls of the source.

Legend:
[1] = target: Ephrin type-A receptor 4 (Mus musculus, UniProt Q03137); experiment: EphA4 ligand-binding antagonists – biochemical, colorimetric, mouse EphA4, primary screen (AID 689); format: functional
[2] = target: Disintegrin and metalloproteinase domain-containing protein 17 (Homo sapiens, UniProt P78536); experiment: exosite inhibitors of ADAM17, dose response, biochemical (AID 743260)
[3] = inhibition of ADAM10 peptide cleavage – biochemical, FRET peptide substrate, recombinant human ADAM10, selectivity assay for ADAM17 exosite inhibitor project, dose response (AID 743259);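 further: ADAM10 enzyme cleaving a FRET peptide substrate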
[4] = NIH-3T3 fibroblast cytotoxicity, dose response, cytotoxicity control, cell-based, fluorescence, Alamar Blue, secondary assay (AID 2327); format: functional;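 further: NIH-3T3 mouse fibroblasts cultured with fluconazole at 8 µg/mL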
[5] = fluconazole-exposed Candida albicans growth modulators – fluorescence, retest, confirmation (AID 2467); format: functional, cell-based
[6] = target: Estrogen receptor beta (Homo sapiens, UniProt Q92731); experiment: blockers of SRC-3 recruitment to ERβ – biochemical, ELISA, streptavidin-HRP readout, orthogonal assay, confirmation (AID 1060)
[7] = tested on: Vero; experiment: mammalian cell viability reduction – secondary assay, cytotoxicity control for West Nile virus antiviral project, dose response (AID 1650); format: functional; settings: Chlorocebus sabaeus

Chain of Ephrin type-A receptor 4 (Q03137 whole entry, the tested form may be a part): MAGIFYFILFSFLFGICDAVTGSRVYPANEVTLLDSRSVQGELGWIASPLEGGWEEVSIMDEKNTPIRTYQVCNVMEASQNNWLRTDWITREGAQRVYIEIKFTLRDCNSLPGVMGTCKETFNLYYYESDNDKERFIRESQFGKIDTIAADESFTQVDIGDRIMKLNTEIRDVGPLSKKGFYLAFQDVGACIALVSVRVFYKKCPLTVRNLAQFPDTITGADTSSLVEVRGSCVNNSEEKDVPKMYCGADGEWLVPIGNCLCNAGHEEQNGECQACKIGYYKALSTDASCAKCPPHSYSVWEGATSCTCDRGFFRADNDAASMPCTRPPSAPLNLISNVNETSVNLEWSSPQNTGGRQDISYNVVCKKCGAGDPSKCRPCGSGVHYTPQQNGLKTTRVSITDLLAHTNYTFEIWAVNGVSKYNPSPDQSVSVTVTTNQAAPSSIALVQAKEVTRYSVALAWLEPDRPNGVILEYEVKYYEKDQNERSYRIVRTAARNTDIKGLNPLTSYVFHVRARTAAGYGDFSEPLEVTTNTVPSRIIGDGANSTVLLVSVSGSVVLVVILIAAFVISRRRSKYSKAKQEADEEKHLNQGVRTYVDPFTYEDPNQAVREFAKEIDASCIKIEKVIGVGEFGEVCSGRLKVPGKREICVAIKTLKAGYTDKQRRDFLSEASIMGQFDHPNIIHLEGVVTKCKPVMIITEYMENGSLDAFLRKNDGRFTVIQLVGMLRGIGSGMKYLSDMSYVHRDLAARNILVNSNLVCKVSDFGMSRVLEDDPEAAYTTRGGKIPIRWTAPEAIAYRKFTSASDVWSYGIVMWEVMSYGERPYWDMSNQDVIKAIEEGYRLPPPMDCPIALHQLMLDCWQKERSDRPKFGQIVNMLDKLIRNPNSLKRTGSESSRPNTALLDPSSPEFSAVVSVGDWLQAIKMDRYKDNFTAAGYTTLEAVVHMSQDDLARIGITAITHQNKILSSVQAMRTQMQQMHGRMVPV
Chain of Estrogen receptor beta (Q92731 whole entry): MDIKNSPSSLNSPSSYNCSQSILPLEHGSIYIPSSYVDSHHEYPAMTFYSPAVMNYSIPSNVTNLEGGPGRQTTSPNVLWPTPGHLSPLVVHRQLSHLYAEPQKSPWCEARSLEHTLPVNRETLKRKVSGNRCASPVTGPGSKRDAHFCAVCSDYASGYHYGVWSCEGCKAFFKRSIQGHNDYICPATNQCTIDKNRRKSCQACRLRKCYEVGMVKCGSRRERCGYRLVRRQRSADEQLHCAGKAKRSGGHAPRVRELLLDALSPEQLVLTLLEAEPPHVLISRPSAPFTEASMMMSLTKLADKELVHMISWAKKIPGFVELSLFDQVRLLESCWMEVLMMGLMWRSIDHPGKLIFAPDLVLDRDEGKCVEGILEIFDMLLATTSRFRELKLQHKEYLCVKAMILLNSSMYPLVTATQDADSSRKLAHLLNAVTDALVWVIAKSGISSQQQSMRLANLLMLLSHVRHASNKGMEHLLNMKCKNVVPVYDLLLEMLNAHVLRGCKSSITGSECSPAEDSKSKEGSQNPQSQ
Chain of Disintegrin and metalloproteinase domain-containing protein 17 (P78536 whole entry, the tested form may be a part): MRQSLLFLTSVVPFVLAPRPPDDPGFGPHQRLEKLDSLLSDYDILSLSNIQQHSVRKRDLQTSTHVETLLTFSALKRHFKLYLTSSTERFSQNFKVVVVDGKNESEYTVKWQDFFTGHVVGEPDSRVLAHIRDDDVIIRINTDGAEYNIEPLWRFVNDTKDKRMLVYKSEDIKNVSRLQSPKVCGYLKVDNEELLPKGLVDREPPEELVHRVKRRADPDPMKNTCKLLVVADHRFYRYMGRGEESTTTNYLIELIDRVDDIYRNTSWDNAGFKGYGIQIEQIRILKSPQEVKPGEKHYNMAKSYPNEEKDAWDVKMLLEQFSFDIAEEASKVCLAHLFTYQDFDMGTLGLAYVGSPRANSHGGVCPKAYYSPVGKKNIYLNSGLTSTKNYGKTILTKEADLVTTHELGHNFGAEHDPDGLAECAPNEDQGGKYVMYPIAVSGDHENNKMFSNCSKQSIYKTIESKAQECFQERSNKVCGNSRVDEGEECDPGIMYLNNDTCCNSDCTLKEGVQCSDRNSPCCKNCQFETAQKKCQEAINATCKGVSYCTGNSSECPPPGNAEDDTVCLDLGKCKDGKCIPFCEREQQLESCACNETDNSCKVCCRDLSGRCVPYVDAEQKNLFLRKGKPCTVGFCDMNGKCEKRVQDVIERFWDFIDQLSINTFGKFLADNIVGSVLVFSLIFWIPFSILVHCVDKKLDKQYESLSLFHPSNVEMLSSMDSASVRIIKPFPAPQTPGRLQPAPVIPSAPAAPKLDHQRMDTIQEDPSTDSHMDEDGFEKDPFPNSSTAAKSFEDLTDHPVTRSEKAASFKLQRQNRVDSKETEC

IC50 [1]: 19.7 µM (active) | IC50 [2]: > 69.5 µM (inactive)
Compound: CCOC(=O)c1cc(OC(=O)c2ccccc2OC)n(-c2ccccc2)n1
IC50 [3]: > 69.5 µM (inactive)

Compound: CN1CCN(C(c2cccnc2)c2ccc3cccnc3c2O)CC1 (stereo not drawn)
EC50 [4]: > 160 µM (inactive) | EC50 [5]: > 38 µM (not active) | IC50 [6]: 32.6 µM (not active)

IC50 [1]: 3.31 µM (active)
Compound: CC(C)C1Cc2c(C#N)c(N)sc(=S)c2CO1 (stereo not drawn)

Compound: COC(=O)C1=C(C(=O)OC)SC(=C2C(=S)C(C)(C)N(C(=O)CC(C)C)c3ccccc32)S1
CC50 [7]: 49.5 µM (active)
